From patent US6274715A, “Tricyclic erythromycin derivatives” (priority 1997, dated 2001)
≈ marks a conversion by molar mass, not a printed value.

Experiments:
Assay type in all cases: cell-based
[1] = tested on: STAPHYLOCOCCUS AUREUS ATCC 6538P; experiment: In vitro antibacterial activity, MIC, BHI agar dilution; settings: S. aureus ATCC 6538P, 35-37° C., 20 to 24 hours, unit assumed
[2] = tested on: STAPHYLOCOCCUS AUREUS A5177; experiment: as above; settings: S. aureus A5177, unit assumed
[3] = tested on: STAPHYLOCOCCUS AUREUS A-5278; experiment: as above; settings: S. aureus A-5278, unit assumed
[4] = tested on: STAPHYLOCOCCUS AUREUS CMX 642A; experiment: as above; settings: S. aureus CMX 642A, unit assumed
[5] = tested on: STAPHYLOCOCCUS AUREUS NCTC10649M; experiment: as above; settings: S. aureus NCTC10649M, unit assumed
[6] = tested on: STAPHYLOCOCCUS AUREUS CMX 553; experiment: as above; settings: S. aureus CMX 553, unit assumed
[7] = tested on: STAPHYLOCOCCUS AUREUS 1775; experiment: as above; settings: S. aureus 1775, unit assumed
[8] = tested on: STAPHYLOCOCCUS EPIDERMIDIS 3519; settings: S. epidermidis 3519; BHI agar; unit assumed
[9] = tested on: EN[…] ATCC 8043; experiment: In vitro antibacterial activity, MIC, BHI agar dilution; settings: E. faecium ATCC 8043, unit assumed
Outline: (§1)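 Twelve successive aqueous dilutions of compound in Brain Heart Infusion agar were inoculated with 1:100 culture dilutions (1:10 for slow growers such as Micrococcus, Streptococcus) by Steers replicator and incubated at 35-37° C for 20 to 24 hours. MIC was the lowest concentration giving no growth, slight haze or sparse colonies versus drug-free control.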

[10] = tested on: M[…] ATCC 4698; experiment: as above; settings: M. luteus ATCC 4698, unit assumed
Outline: as §1

[11] = tested on: M[…] ATCC 9341; experiment: as above; settings: M. luteus ATCC 9341, unit assumed
Outline: as §1

[12] = tested on: STR[…] 508; experiment: as above; settings: S. agalactiae CMX 508, unit assumed
Outline: as §1

[13] = tested on: STREPTOCOCCUS BOVIS A-5169; experiment: as above; settings: S. bovis A-5169, unit assumed
[14] = tested on: STREPTOCOCCUS PYOGENES EES61; experiment: as above; settings: S. pyogenes EES61, unit assumed
[15] = tested on: STREPTOCOCCUS PYOGENES 930; experiment: as above; settings: S. pyogenes 930, unit assumed
[16] = tested on: STREPTOCOCCUS PYOGENES PIU 2548; experiment: as above; settings: S. pyogenes PIU 2548, unit assumed
[17] = tested on: ESCHERICHIA COLI JUHL; settings: E. coli JUHL; BHI agar; unit assumed
[18] = tested on: ESCHERICHIA COLI SS; experiment: In vitro antibacterial activity, MIC, BHI agar dilution; settings: E. coli SS, unit assumed
[19] = tested on: ESCHERICHIA COLI DC-2; experiment: as above; settings: E. coli DC-2, unit assumed
[20] = tested on: ESCHERICHIA COLI H560; experiment: as above; settings: E. coli H560, unit assumed
[21] = tested on: ESCHERICHIA COLI KNK 437; settings: E. coli KNK 437; BHI agar; unit assumed
[22] = tested on: ENTEROBACTER AEROGENES ATCC 13048; experiment: In vitro antibacterial activity, MIC, BHI agar dilution; settings: E. aerogenes ATCC 13048, unit assumed
[23] = tested on: KLEBSIELLA PNEUMONIAE ATCC 8045; experiment: as above; settings: K. pneumoniae ATCC 8045, unit assumed
[24] = tested on: PROVIDENCIA STUARTII CMX 640; settings: P. stuartii CMX 640; BHI agar; unit assumed
[25] = tested on: PSEUDOMONAS AERUGINOSA BMH10; experiment: In vitro antibacterial activity, MIC, BHI agar dilution; settings: P. aeruginosa BMH10, unit assumed
[26] = tested on: PSEUDOMONAS AERUGINOSA 5007; experiment: as above; settings: P. aeruginosa 5007, unit assumed
[27] = tested on: PSEUDOMONAS AERUGINOSA K799/WT; experiment: as above; settings: P. aeruginosa K799/WT, unit assumed
[28] = tested on: PSEUDOMONAS AERUGINOSA K799/61; experiment: as above; settings: P. aeruginosa K799/61, unit assumed
[29] = tested on: PSEUDOMONAS CEPACIA 296I; experiment: as above; settings: P. cepacia 296I, unit assumed
[30] = tested on: PSEUDOMONAS AERUGINOSA DPHD-5263; experiment: as above; settings: P. aeruginosa DPHD-5263, unit assumed
[31] = tested on: PSEUDOMONAS AERUGINOSA DPHD-2862; experiment: as above; settings: P. aeruginosa DPHD-2862, unit assumed
[32] = tested on: CANDIDA ALBICANS CCH 442; experiment: as above; settings: C. albicans CCH 442, unit assumed
[33] = tested on: MYCOBACTERIUM SMEGMATIS ATCC 114; experiment: as above; settings: M. smegmatis ATCC 114, unit assumed

Question: Which results are given for `CC[C@H]1OC(=O)[C@H](C)C(=O)[C@H](C)[C@@H](O[C@@H]2O[C@H](C)C[C@H](N(C)C)[C@H]2O)[C@](C)(OC)C[C@@H](C)C2=NC3CN(CC(OC)OC)CC3N3C(=O)O[C@@]1(C)[C@H]3[C@H]2C` (stereo partly drawn) [Example 127]?
Answer: MIC [1]: 3.1 µg/mL (≈ 4.04 µM); MIC [2]: 1.56 µg/mL (≈ 2.03 µM); MIC [3]: > 100 µg/mL; MIC [4]: 3.1 µg/mL (≈ 4.04 µM); MIC [5]: 1.56 µg/mL (≈ 2.03 µM); MIC [6]: 1.56 µg/mL (≈ 2.03 µM); MIC [7]: > 100 µg/mL; MIC [8]: 1.56 µg/mL (≈ 2.03 µM); MIC [9]: 0.39 µg/mL (≈ 0.508 µM); MIC [10]: 1.56 µg/mL (≈ 2.03 µM); MIC [11]: 0.39 µg/mL (≈ 0.508 µM); MIC [12]: 0.2 µg/mL (≈ 0.261 µM); MIC [13]: 0.1 µg/mL (≈ 0.13 µM); MIC [14]: 0.1 µg/mL (≈ 0.13 µM); MIC [15]: > 100 µg/mL; MIC [16]: 1.56 µg/mL (≈ 2.03 µM); MIC [17]: > 100 µg/mL; MIC [18]: 1.56 µg/mL (≈ 2.03 µM); MIC [19]: > 100 µg/mL; MIC [20]: > 100 µg/mL; MIC [21]: > 100 µg/mL; MIC [22]: > 100 µg/mL; MIC [23]: > 100 µg/mL; MIC [24]: > 100 µg/mL; MIC [25]: > 100 µg/mL; MIC [26]: > 100 µg/mL; MIC [27]: > 100 µg/mL; MIC [28]: 3.1 µg/mL (≈ 4.04 µM); MIC [29]: > 100 µg/mL; MIC [30]: > 100 µg/mL; MIC [31]: > 100 µg/mL; MIC [32]: > 100 µg/mL; MIC [33]: 25 µg/mL (≈ 32.6 µM)

Question: With `CC[C@H]1OC(=O)[C@H](C)C(=O)[C@H](C)[C@@H](O[C@@H]2O[C@H](C)C[C@H](N(C)C)[C@H]2O)[C@](C)(OC)C[C@@H](C)C2=NCC(COC(=O)c3ccc([N+](=O)[O-])cc3)N3C(=O)O[C@@]1(C)[C@H]3[C@H]2C` (stereo partly drawn) [Example 140] as the molecule, how does the MIC [1] read?
Answer: The MIC was 0.1 µg/mL (≈ 0.122 µM).

Question: What about the MIC [2] of the same molecule?
Answer: The MIC was 0.1 µg/mL (≈ 0.122 µM).

Question: And the MIC [3]?
Answer: Its MIC is > 100 µg/mL.

Question: And the MIC [4]?
Answer: The MIC was 0.1 µg/mL (≈ 0.122 µM).

Question: What about the MIC [5] of the same molecule?
Answer: Its MIC is 0.1 µg/mL (≈ 0.122 µM).

Question: What about the MIC [6] of the same molecule?
Answer: Its MIC is 0.1 µg/mL (≈ 0.122 µM).

Question: And the MIC [7]?
Answer: The MIC was > 100 µg/mL.

Question: What about the MIC [8] of the same molecule?
Answer: Its MIC is 0.1 µg/mL (≈ 0.122 µM).

Question: What about the MIC [9] of the same molecule?
Answer: Its MIC is 0.05 µg/mL (≈ 0.0612 µM).

Question: What about the MIC [10] of the same molecule?
Answer: The MIC was 0.1 µg/mL (≈ 0.122 µM).

Question: And the MIC [11]?
Answer: The MIC was 0.01 µg/mL (≈ 0.0122 µM).

Question: And the MIC [12]?
Answer: Its MIC is 0.02 µg/mL (≈ 0.0245 µM).

Question: What about the MIC [13] of the same molecule?
Answer: Its MIC is ≤ 0.005 µg/mL.

Question: What about the MIC [14] of the same molecule?
Answer: Its MIC is ≤ 0.005 µg/mL.

Question: What about the MIC [15] of the same molecule?
Answer: The MIC was 50 µg/mL (≈ 61.2 µM).

Question: What about the MIC [16] of the same molecule?
Answer: Its MIC is 0.2 µg/mL (≈ 0.245 µM).

Question: And the MIC [17]?
Answer: Its MIC is 50 µg/mL (≈ 61.2 µM).

Question: What about the MIC [18] of the same molecule?
Answer: Its MIC is 0.78 µg/mL (≈ 0.955 µM).

Question: What about the MIC [19] of the same molecule?
Answer: Its MIC is 50 µg/mL (≈ 61.2 µM).

Question: What about the MIC [20] of the same molecule?
Answer: Its MIC is 25 µg/mL (≈ 30.6 µM).

Question: And the MIC [21]?
Answer: The MIC was 50 µg/mL (≈ 61.2 µM).

Question: What about the MIC [22] of the same molecule?
Answer: Its MIC is > 100 µg/mL.

Question: And the MIC [23]?
Answer: The MIC was > 100 µg/mL.

Question: And the MIC [24]?
Answer: Its MIC is > 100 µg/mL.

Question: What about the MIC [25] of the same molecule?
Answer: The MIC was > 100 µg/mL.

Question: What about the MIC [26] of the same molecule?
Answer: The MIC was > 100 µg/mL.

Question: And the MIC [27]?
Answer: Its MIC is > 100 µg/mL.

Question: What about the MIC [28] of the same molecule?
Answer: Its MIC is 0.39 µg/mL (≈ 0.477 µM).

Question: What about the MIC [29] of the same molecule?
Answer: The MIC was 25 µg/mL (≈ 30.6 µM).

Question: What about the MIC [30] of the same molecule?
Answer: Its MIC is > 100 µg/mL.

Question: What about the MIC [31] of the same molecule?
Answer: Its MIC is > 100 µg/mL.

Question: What about the MIC [32] of the same molecule?
Answer: The MIC was > 100 µg/mL.

Question: What about the MIC [33] of the same molecule?
Answer: Its MIC is 0.39 µg/mL (≈ 0.477 µM).

Question: What does the source list for `CC[C@H]1OC(=O)[C@H](C)C(=O)[C@H](C)[C@@H](O[C@@H]2O[C@H](C)C[C@H](N(C)C)[C@H]2O)[C@](C)(OC)C[C@@H](C)C2=NC[C@H](Cc3cscn3)N3C(=O)O[C@@]1(C)[C@H]3[C@H]2C` [Example 69]?
Answer: MIC [1]: 0.2 µg/mL (≈ 0.272 µM); MIC [2]: 0.2 µg/mL (≈ 0.272 µM); MIC [3]: > 100 µg/mL; MIC [4]: 0.39 µg/mL (≈ 0.531 µM); MIC [5]: 0.2 µg/mL (≈ 0.272 µM); MIC [6]: 0.2 µg/mL (≈ 0.272 µM); MIC [7]: > 100 µg/mL; MIC [8]: 0.2 µg/mL (≈ 0.272 µM); MIC [9]: 0.1 µg/mL (≈ 0.136 µM); MIC [10]: 0.2 µg/mL (≈ 0.272 µM); MIC [11]: 0.05 µg/mL (≈ 0.068 µM); MIC [12]: 0.02 µg/mL (≈ 0.0272 µM); MIC [13]: 0.01 µg/mL (≈ 0.0136 µM); MIC [14]: 0.02 µg/mL (≈ 0.0272 µM); MIC [15]: > 100 µg/mL; MIC [16]: 0.39 µg/mL (≈ 0.531 µM); MIC [17]: 100 µg/mL (≈ 136 µM); MIC [18]: 0.39 µg/mL (≈ 0.531 µM); MIC [19]: 50 µg/mL (≈ 68 µM); MIC [20]: 50 µg/mL (≈ 68 µM); MIC [21]: > 100 µg/mL; MIC [22]: > 100 µg/mL; MIC [23]: > 100 µg/mL; MIC [24]: > 100 µg/mL; MIC [25]: > 100 µg/mL; MIC [26]: > 100 µg/mL; MIC [27]: > 100 µg/mL; MIC [28]: 0.78 µg/mL (≈ 1.06 µM); MIC [29]: > 100 µg/mL; MIC [30]: > 100 µg/mL; MIC [31]: > 100 µg/mL; MIC [32]: > 100 µg/mL; MIC [33]: 3.1 µg/mL (≈ 4.22 µM)
